Results as given in ChEMBL document CHEMBL1201862, “PubChem BioAssay data set” (2004).
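96-well plates; 48 h exposure; 5 concentrations. Endpoints by linear interpolation between flanking doses. Not reached: highest tested concentration assigned. Abbreviation: GI50, concentration required for 50% inhibition of growth.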 Activity calls are given as the source filed them. No stated cut-off is given here; in the data, active = GI50 up to about 1.1 µM and inactive = higher.

Tests used:
Experiment in all cases: inhibition of tumour cell growth, NCI panel, 48 h
[1] = test system: HCC 2998
[2] = test system: SK-MEL-2
[3] = test system: LOX IMVI
[4] = test system: SK-OV-3
[5] = test system: KM-20L2
[6] = test system: RPMI-8226
[7] = test system: UO-31
[8] = test system: KM12
[9] = test system: SF-539
[10] = test system: RXF 393
[11] = test system: 786-0
[12] = test system: CAKI-1
[13] = test system: UACC-62
[14] = test system: K562
[15] = test system: SNB-75
[16] = test system: SNB-19
[17] = test system: BT-549
[18] = test system: NCI/ADR-RES
[19] = test system: Hs-578T
[20] = test system: DU-145

Measured: GI50

O=C1CCC2(c3ccc(F)cc3)Nc3ccccc3N12 (stereo not drawn)
inactive: [1] > 100 µM | [2] > 100 µM | [3] > 100 µM | [4] > 100 µM | [5] > 100 µM | [6] > 100 µM | [7] > 100 µM | [8] > 100 µM | [9] > 100 µM | [10] > 100 µM | [11] > 100 µM | [12] > 100 µM | [13] > 100 µM | [14] > 100 µM | [15] 63.7 µM

N#C/C(=C\c1ccc[nH]1)C(=O)c1ccccc1
inactive: [1] > 100 µM | [2] > 100 µM | [3] > 100 µM | [4] > 100 µM | [5] > 100 µM | [6] > 100 µM | [7] > 100 µM | [16] > 100 µM | [8] > 100 µM | [9] > 100 µM | [10] 58.9 µM | [11] > 100 µM | [12] > 100 µM | [13] > 100 µM | [14] > 100 µM | [15] 35.8 µM

COc1cccc(NC(=O)CSc2nnc(Cc3ccccc3)o2)c1
inactive: [1] > 100 µM | [2] > 100 µM | [3] > 100 µM | [4] > 100 µM | [5] > 100 µM | [6] > 100 µM | [7] > 100 µM | [16] > 100 µM | [8] > 100 µM | [9] > 100 µM | [10] > 100 µM | [11] > 100 µM | [12] > 100 µM | [13] > 100 µM | [14] > 100 µM | [15] 51.8 µM

O=C(CC1C(=O)Nc2ccccc2[S+]1[O-])Nc1cccc(Cl)c1 (stereo not drawn)
inactive: [1] > 47.5 µM | [2] 55.5 µM | [3] > 100 µM | [4] 31.3 µM | [5] > 100 µM | [6] 7.98 µM | [7] 25.1 µM | [16] 30.5 µM | [17] 26.3 µM | [18] 18.5 µM | [8] > 57.9 µM | [9] 18.6 µM | [19] 38.1 µM | [10] 20.9 µM | [11] 37.2 µM | [20] 32.5 µM | [12] 20.7 µM | [13] > 43.1 µM | [14] 6.61 µM | [15] 16.4 µM

CCOc1ccc(NCC2CC/C(=C\c3ccc(Cl)cc3)C2=O)cc1 (stereo not drawn)
inactive: [1] 13 µM | [2] 22.4 µM | [3] 19.4 µM | [4] > 100 µM | [5] > 38.3 µM | [6] 2.54 µM | [7] > 42.5 µM | [16] 49.1 µM | [8] 14.2 µM | [9] > 41.7 µM | [10] > 47.9 µM | [11] 13 µM | [12] > 45.1 µM | [13] > 40.7 µM | [14] 6.81 µM | [15] > 44.5 µM

Nc1ccc2c(SCC(=O)Nc3ccccc3-c3ccccc3NC(=O)CSc3c4ccccc4nc4cc(N)ccc34)c3ccccc3nc2c1
inactive: [1] 36.1 µM | [2] 25.6 µM | [3] 22.9 µM | [4] 43.2 µM | [5] 33.1 µM | [6] 8.47 µM | [7] 20 µM | [16] 18.9 µM | [17] 42 µM | [18] 32.6 µM | [8] 19.5 µM | [9] 32.1 µM | [19] > 59.3 µM | [10] 34.9 µM | [11] 25.3 µM | [20] 24.2 µM | [12] 45.5 µM | [13] 18.9 µM | [14] 2.71 µM | [15] 38.5 µM
